# Measurements published in PubChem BioAssay AID1845203 (Molecular Pharmacology Branch, DTP, NCI, 2023).
# Tested on: G-401 tumor spheroids, viability % test/control
# Experiment: Anticancer human tumor G-401 cell line growth inhibition;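 also: spheroids exposed to compound for 7 days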;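 as to viability, T/C: 100% = DMSO vehicle-treated spheroids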
# Settings: spheroids with HUVEC and MSC; for IC50: curve of first compound; for viability, T/C: stronger effect = lower value
# Method in brief: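 Single agents and combinations were tested on spheroids built from tumor cells plus HUVEC and hMSC, at half-log dilutions starting at or near clinical Cmax, else 10 microM; final DMSO 0.25% (v/v).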
compound,measurement,setting,value
COc1ccc([C@@H](O)c2cc(-c3ncnc4cc(N5CCOCC5)ccc34)c(F)cc2Cl)nn1 + CC[C@@]1(O)C(=O)OCc2c1cc1n(c2=O)Cc2cc3c(CN(C)C)c(O)ccc3nc2-1,IC50,second compound 0.003 µM,864 nM
same,IC50,second compound 0.00949 µM,< 31.6 nM
same,IC50,second compound 0.03 µM,< 31.6 nM
same,IC50,second compound 0.0949 µM,< 31.6 nM
same,IC50,second compound 0.3 µM,< 31.6 nM
same,"viability, T/C","second compound 0.003 µM, first compound 0.0316 µM",84.4%
same,"viability, T/C","second compound 0.003 µM, first compound 0.1 µM",84.2%
same,"viability, T/C","second compound 0.003 µM, first compound 0.316 µM",66.6%
same,"viability, T/C","second compound 0.003 µM, first compound 1 µM",48.3%
same,"viability, T/C","second compound 0.003 µM, first compound 3.16 µM",23.6%
same,"viability, T/C","second compound 0.003 µM, first compound 10 µM",9.59%
same,"viability, T/C","second compound 0.00949 µM, first compound 0.0316 µM",43.5%
same,"viability, T/C","second compound 0.00949 µM, first compound 0.1 µM",41.3%
same,"viability, T/C","second compound 0.00949 µM, first compound 0.316 µM",40.5%
same,"viability, T/C","second compound 0.00949 µM, first compound 1 µM",26.8%
same,"viability, T/C","second compound 0.00949 µM, first compound 3.16 µM",11.7%
same,"viability, T/C","second compound 0.00949 µM, first compound 10 µM",5.69%
same,"viability, T/C","second compound 0.03 µM, first compound 0.0316 µM",16.9%
same,"viability, T/C","second compound 0.03 µM, first compound 0.1 µM",15.9%
same,"viability, T/C","second compound 0.03 µM, first compound 0.316 µM",11.2%
same,"viability, T/C","second compound 0.03 µM, first compound 1 µM",8.51%
same,"viability, T/C","second compound 0.03 µM, first compound 3.16 µM",5.48%
same,"viability, T/C","second compound 0.03 µM, first compound 10 µM",3.09%
same,"viability, T/C","second compound 0.0949 µM, first compound 0.0316 µM",7.39%
same,"viability, T/C","second compound 0.0949 µM, first compound 0.1 µM",7.68%
same,"viability, T/C","second compound 0.0949 µM, first compound 0.316 µM",6.35%
same,"viability, T/C","second compound 0.0949 µM, first compound 1 µM",5.25%
same,"viability, T/C","second compound 0.0949 µM, first compound 3.16 µM",3.31%
same,"viability, T/C","second compound 0.0949 µM, first compound 10 µM",1.7%
same,"viability, T/C","second compound 0.3 µM, first compound 0.0316 µM",4.49%
same,"viability, T/C","second compound 0.3 µM, first compound 0.1 µM",4.63%
same,"viability, T/C","second compound 0.3 µM, first compound 0.316 µM",3.66%
same,"viability, T/C","second compound 0.3 µM, first compound 1 µM",2.59%
same,"viability, T/C","second compound 0.3 µM, first compound 3.16 µM",0.94%
same,"viability, T/C","second compound 0.3 µM, first compound 10 µM",0.33%
Cn1ncnc1[C@H]1c2n[nH]c(=O)c3cc(F)cc(c23)N[C@@H]1c1ccc(F)cc1 + Cn1nnc2c(C(N)=O)ncn2c1=O,IC50,second compound 1 µM,156 nM
same,IC50,second compound 3.16 µM,57.5 nM
same,IC50,second compound 10 µM,22.2 nM
same,IC50,second compound 31.6 µM,< 9.49 nM
same,IC50,second compound 100 µM,< 9.49 nM
same,"viability, T/C","second compound 1 µM, first compound 0.00949 µM",81.7%
same,"viability, T/C","second compound 1 µM, first compound 0.03 µM",73.9%
same,"viability, T/C","second compound 1 µM, first compound 0.0949 µM",57.2%
same,"viability, T/C","second compound 1 µM, first compound 0.3 µM",39.6%
same,"viability, T/C","second compound 1 µM, first compound 0.949 µM",23.3%
same,"viability, T/C","second compound 1 µM, first compound 3 µM",12.6%
same,"viability, T/C","second compound 3.16 µM, first compound 0.00949 µM",87.8%
same,"viability, T/C","second compound 3.16 µM, first compound 0.03 µM",54.6%
same,"viability, T/C","second compound 3.16 µM, first compound 0.0949 µM",45.3%
same,"viability, T/C","second compound 3.16 µM, first compound 0.3 µM",30.5%
same,"viability, T/C","second compound 3.16 µM, first compound 0.949 µM",23.4%
same,"viability, T/C","second compound 3.16 µM, first compound 3 µM",13.2%
same,"viability, T/C","second compound 10 µM, first compound 0.00949 µM",63%
same,"viability, T/C","second compound 10 µM, first compound 0.03 µM",44.9%
same,"viability, T/C","second compound 10 µM, first compound 0.0949 µM",32.4%
same,"viability, T/C","second compound 10 µM, first compound 0.3 µM",23.3%
same,"viability, T/C","second compound 10 µM, first compound 0.949 µM",15.7%
same,"viability, T/C","second compound 10 µM, first compound 3 µM",10.4%
same,"viability, T/C","second compound 31.6 µM, first compound 0.00949 µM",35.6%
same,"viability, T/C","second compound 31.6 µM, first compound 0.03 µM",21.3%
same,"viability, T/C","second compound 31.6 µM, first compound 0.0949 µM",16.4%
same,"viability, T/C","second compound 31.6 µM, first compound 0.3 µM",13.9%
same,"viability, T/C","second compound 31.6 µM, first compound 0.949 µM",10.4%
same,"viability, T/C","second compound 31.6 µM, first compound 3 µM",9.51%
same,"viability, T/C","second compound 100 µM, first compound 0.00949 µM",14.1%
same,"viability, T/C","second compound 100 µM, first compound 0.03 µM",11.6%
same,"viability, T/C","second compound 100 µM, first compound 0.0949 µM",10.8%
same,"viability, T/C","second compound 100 µM, first compound 0.3 µM",10.3%
same,"viability, T/C","second compound 100 µM, first compound 0.949 µM",8.87%
same,"viability, T/C","second compound 100 µM, first compound 3 µM",6.62%
